In PubChem BioAssay (NCI):
Where “and” joins values, the source holds several entries; their conditions need not be identical. Equal entries are not always repeated.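 Where inhibition never reached the appropriate level, the endpoint shown equals the highest concentration tested. Otherwise, values were interpolated linearly from a five-concentration, 48-hour dose response in 96-well plates. The concentration for 50% growth inhibition is given as GI50. TGI: total growth inhibition.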

Tests used:
Assay in all cases: NCI tumour cell line growth inhibition, 48 h
[1] = test system: EKVX NSCLC
[2] = test system: K-562 leukemia
[3] = test system: NCI-H460 lung
[4] = test system: SNB-19 CNS
[5] = test system: NCI-H23 lung
[6] = test system: CCRF-CEM leukemia
[7] = test system: HOP-62 NSCLC
[8] = test system: SN12C renal
[9] = test system: HOP-92 NSCLC
[10] = test system: HS 578T breast

Structure (SMILES) | GI50 [1] | TGI [1] | GI50 [2] | TGI [2] [µM] | GI50 [3] | TGI [3] | GI50 [4] [µM] | TGI [4] | GI50 [5] | TGI [5] | GI50 [6] | TGI [6] | GI50 [7] [µM] | TGI [7] [µM] | GI50 [8] [µM] | TGI [8] | TGI [9] | GI50 [10] [µM] | TGI [10] [µM] | GI50 [9]
CSc1ccccc1C#C/C=C\C#Cc1ccccc1N | 16.9 µM | 57.4 µM | 5.08 µM | > 100 | 4.69 µM | 26 µM | 22.2 | > 100 µM | 13.1 µM | 37.3 µM | 4.98 µM | > 100 µM | 5.39 | 26.3 | 8.93 | 27.7 µM |  |  |  | 
Cn1c2ccccc2c2ncc3[nH]c4ccccc4c3c21 |  | 65.6 µM |  | 95.5 |  | 32.2 µM |  | > 100 µM |  | 43.7 µM |  | > 100 µM |  | > 100 |  | 73.2 µM | 56.8 µM |  |  | 
CS/C(=C(\S)c1ccccc1)c1ccccc1 |  | > 100 µM |  | > 100 |  | > 100 µM |  | > 100 µM |  | > 100 µM |  |  |  | > 100 |  | > 100 µM | > 100 µM |  |  | 
O=C1c2cc3c(cc2-c2c1c1cc(Cl)c(Cl)cc1c(=O)n2C[C@H](O)CO)OCO3 | 0.0243 µM | 19 µM | < 0.01 µM | > 100 | < 0.01 µM | 0.0268 µM | < 0.01 | 2.79 µM | < 0.01 µM | 0.0448 µM | < 0.01 µM | 19.1 µM | < 0.01 | 0.0326 | < 0.01 | 0.122 µM |  | 0.291 | 32.9 | 
COc1ccc2c(c1)c[n+](C)c1c3cc(OC)c(OC)cc3ccc21 | 1.5 µM and 11.3 µM | 4.52 µM and 42.3 µM |  | 43.1 | 1.23 µM and 2.7 µM | 2.72 µM and 10.9 µM |  | 8.1 µM and 13.8 µM | 1.48 µM and 3.35 µM | 3.08 µM and 11.8 µM | 0.559 µM and 1.42 µM | > 100 µM and 12.4 µM | 4.63 | 15.2 |  | 3.53 µM and 8.51 µM | 9.98 µM and 35.1 µM |  |  | 3.69 µM and 14.6 µM
Nc1c(C(=O)c2ccccc2)cnn1-c1ccc(F)cc1 |  |  | > 25 µM | > 25 | > 25 µM | > 25 µM | > 25 | > 25 µM | > 25 µM | > 25 µM | > 25 µM | > 25 µM | > 25 | > 25 | > 25 | > 25 µM | > 25 µM | > 25 | > 25 | > 19.3 µM
Cn1c(=O)c(Oc2ccc(F)cc2)cc2cnc(NC3CCOCC3)nc21 |  |  | > 25 µM | > 25 | > 25 µM | > 25 µM | > 25 | > 25 µM | > 25 µM | > 25 µM | > 25 µM | > 25 µM | > 25 | > 25 | > 25 | > 25 µM | > 25 µM | > 25 | > 25 | 4.72 µM
O=c1[nH]c2ccc(O)cc2o1 |  | > 100 µM |  | > 100 |  | > 100 µM |  | > 100 µM |  | > 100 µM |  | > 100 µM |  | > 100 |  | > 100 µM |  |  | > 100 | 
COC(=O)c1cc2c(s1)-c1nccc3c1c(nc1ccccc13)C2=O | > 100 µM | > 100 µM | > 100 µM | > 100 | > 100 µM | > 100 µM | > 100 | > 100 µM | > 100 µM | > 100 µM | > 100 µM | > 100 µM | 65.4 | > 100 | > 100 | > 100 µM |  | 28.2 | > 100 | 
CC(=O)N1CCC(=O)/C(=C/c2ccccc2)C1 |  |  |  | > 100 |  | > 100 µM |  | > 100 µM |  | > 100 µM |  |  |  | > 100 |  | 37.6 µM | > 100 µM |  |  | 
C=CCN1CCC23c4c5ccc(O)c4OC2C(=NN=C2CCC4(O)C6Cc7ccc(O)c8c7C4(CCN6CC=C)C2O8)CCC3(O)C1C5 (stereo not given) |  | > 100 µM |  | 78.7 |  | 43.7 µM |  | > 100 µM |  | > 100 µM |  | > 100 µM |  | 44 |  | 47.8 µM | 39.9 µM |  |  | 
CN(C)CCNC(=O)c1cccc2c(Nc3ccc(S(=O)(=O)N=C(N)N)cc3)c3ccccc3nc12 |  | 55.3 µM |  | 77.4 |  | 18.7 µM |  | 17.9 µM |  | > 100 µM |  | 30.2 µM |  | 39.2 |  | 59.5 µM |  |  |  | 
O=[P@@]1(c2ccccc2)O[C@H](COCc2ccccc2)[C@@H](OCc2ccccc2)[C@H](OCc2ccccc2)[C@H]1NCc1ccccc1 | 2.71 µM | > 100 µM | 2.86 µM | > 100 | 2.59 µM | 7.11 µM | 3.71 | > 100 µM | 3.66 µM | > 100 µM | 3.23 µM | > 100 µM | 3.77 | > 100 | 1.83 | 3.6 µM |  | 3.43 | > 100 | 
Nc1ccn(C2OC(CO)C(O)C2O)c(=O)n1 (stereo not given) |  | > 500 µM | 0.477 µM and 0.464 µM and 4.64 µM | > 500 | 0.114 µM and 0.231 µM and 0.12 µM | > 100 µM and 418 µM | 2.19 | > 100 µM and 469 µM and > 500 µM |  |  | < 0.0107 µM and 0.00608 µM and 0.0148 µM |  | 0.237 |  | 2.05 | > 100 µM and 457 µM and > 500 µM |  |  | > 500 | 
COc1ccc(C(O)(CCC(C)C)C(CN2CCOCC2)c2ccc(Cl)cc2)cc1 (stereo not given) |  |  | 15.1 µM | 47 | 11.4 µM | 31.6 µM | 14.8 | 52.4 µM | 9.85 µM | 30.3 µM | 13.6 µM | 34.8 µM | 18.8 | 37.4 | 13.4 | 31.2 µM | 21.7 µM | 15.2 | 40.4 | 8 µM
Cc1nc2cc(Nc3nc(Nc4ccc(F)cc4)nc(-c4cccs4)n3)ccc2n1Cc1ccccc1 |  |  | 3.07 µM | 20.6 | 3.78 µM | 20.4 µM | 5.29 | > 100 µM | 5.87 µM | 32.7 µM | 2.46 µM | 7.21 µM | 8.45 | > 100 | 5.73 | 58.1 µM |  | 3.81 | > 100 | 
COC(=O)c1s/c(=N\C(=S)N(C)C)n(-c2ccc(Cl)cc2)c1C(=O)OC |  | > 100 µM |  | > 100 |  | > 100 µM |  | > 100 µM |  | > 100 µM |  | > 100 µM |  | > 100 |  | > 100 µM |  |  |  | 
